These results are taken from patent publication US9828349B2, “1-aryl-1-hydroxy-2,3-diamino-propyl amines, 1-heteroaryl-1-hydroxy-2,3-diamino-propyl amines and related compounds having analgesic and/or immuno stimulant activity” (Allergan, Inc., priority 2005, dated 2017).

In experiment [1] the target is T1, GlcCer synthase (Homo sapiens, UniProt Q16739).
T1 sequence (Q16739 1-394): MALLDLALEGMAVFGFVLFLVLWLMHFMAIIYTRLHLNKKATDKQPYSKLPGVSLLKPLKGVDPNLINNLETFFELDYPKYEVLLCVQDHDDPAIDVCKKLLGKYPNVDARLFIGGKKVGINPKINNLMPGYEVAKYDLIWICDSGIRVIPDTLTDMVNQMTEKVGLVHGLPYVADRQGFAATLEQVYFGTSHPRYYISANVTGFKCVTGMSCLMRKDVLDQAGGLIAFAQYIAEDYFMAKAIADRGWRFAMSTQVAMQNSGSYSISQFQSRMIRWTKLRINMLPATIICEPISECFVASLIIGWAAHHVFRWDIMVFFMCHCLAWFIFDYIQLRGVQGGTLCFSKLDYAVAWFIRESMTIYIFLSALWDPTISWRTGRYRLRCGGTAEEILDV
To be noted: cited from earlier work.

Experiment [2] relates to tactile allodynia (Chung model). The experiment is described as follows: Chung model: reversal of tactile allodynia after spinal nerve ligation (von Frey hairs). The class given is in vivo. Conditions: highest % allodynia reversal out of 15, 30, 60 min post-drug, rat. From the text: An art-accepted model or assay for measuring an analgesic effect of a compound in chronic pain (in particular peripheral neuropathy) is the model known as Kim and Chung 1992, Pain […], pp 355-363 (Chung model). This model involves the surgical ligation of the L5 (and optionally the L6) spinal nerves on one side in experimental animals. Rats recovering from the surgery gain weight and display a level of general activity similar to that of normal rats. However, these rats develop abnormalities of the foot, wherein the hindpaw is moderately everted and the toes are held together. More importantly, the hindpaw on the side affected by the surgery appears to become sensitive to low-threshold mechanical stimuli and will perceive pain instead of the faint sensation of touch. This sensitivity to normally non-painful touch, called “tactile allodynia”, develops within the first week after surgery and lasts for at least two months. The allodynia response includes lifting the affected hindpaw to escape from the stimulus, licking the paw and holding it in the air for many seconds. None of these responses is normally seen in the control group.
To produce the tactile allodynia, rats are anesthetized before surgery. The surgical site is shaved and prepared either with betadine or Novacaine. Incision is made from the thoracic vertebra XIII down toward the sacrum. Muscle tissue is separated from the spinal vertebra (left side) at the L4-S2 levels. […]
Tactile allodynia is assessed via von Frey hairs, which are a series of fine hairs with incremental differences in stiffness. […] The applied force has been calculated to range from 0.41 to 15.1 grams. […] The 50% paw withdrawal threshold is determined using the method of Dixon, W. J., Ann. […] Tactile allodynia is measured prior to and 15, 30, and 60 minutes after drug administration. The post-drug threshold is compared to the pre-drug threshold and the percent reversal of tactile sensitivity is calculated based on a normal threshold of 15.1 grams. […]

Experiment [3] relates to spatial memory deficit after transient forebrain ischemia. Conditions: treatment after transient forebrain ischemia in rats; cited from earlier work.

As for `O=C(N[C@H](CN1CCCC1)[C@H](O)c1ccccc1)OCc1ccccc1` [PBPP, D-threo-1-phenyl-2-benzyloxycarbonylamino-3-pyrrolidino-1-propanol], in experiment [1], the “inhibition of GCS (glucosylceramide synthase)” value is “potent GCS inhibitor”.

Regarding `CC(=O)O[C@@H](c1ccccc1)[C@H](CN1CCOCC1)NC(=O)OCc1ccccc1.Cl` [Compound 3, benzyl L-threo-1-acetoxy-3-morpholino-1-phenylpropan-2-ylcarbamate hydrochloride], the “Peak % Pain reversal” value in experiment [2] (300 μg/kg IP) worked out at 92%.

Turning to `CCCCCCCCCC(=O)N[C@@H](CN1CCOCC1)[C@@H](O)c1ccccc1` [L-threo-PDMP, (1S,2S)-1-phenyl-2-decanoylamino-3-morpholino-1-propanol], in experiment [3], the “deficit of a well learned spatial memory (8-arm maze task)” value was “ameliorated the deficit of a well learned spatial memory”.

In the case of `Cl.O=C(N[C@@H](CN1CCOCC1)[C@@H](O)c1ccccc1)OCc1ccccc1` [Compound 1, benzyl L-threo-1-hydroxy-3-morpholino-1-phenylpropan-2-ylcarbamate hydrochloride], the “Peak % Pain reversal” value in experiment [2] (300 μg/kg IP) was found to be 44%.

As for `CCCCCCCCCCCCCCCC(=O)N[C@H](CN1CCCC1)[C@H](O)c1ccc(O)cc1` [D-threo-4′-hydroxy-P4], the “inhibition of GCS (glucosylceramide synthase)” value in experiment [1] was “one of the most potent inhibitor of GCS”.

With `N[C@@H](CN1CCCC1)[C@@H](O)c1ccncc1` (racemic) [Compound 46, DL-threo-2-amino-1-(pyridin-4-yl)-3-(pyrrolidin-1-yl)propan-1-ol], the “Peak % Pain reversal” value in experiment [2] (30 μg/kg IP) is given as 96%.
